Assay results from publication PMC3433414, “Oral Administration of the Pimelic Diphenylamide HDAC Inhibitor HDACi 4b Is Unsuitable for Chronic Inhibition of HDAC Activity in the CNS In Vivo” (PLoS ONE, 2012).

Assays:
catalytic domain HDAC4 = target: T1, catalytic domain HDAC4 (Homo sapiens, UniProt P56524); assay: Two-step fluorogenic deacetylase assay, recombinant HDAC4; format: biochemical; details: up to 50 µM
T1 construct: catalytic domain HDAC4(αα 648–1057); purchased Emerald Biosciences (Seattle, WA)
T1 sequence (P56524 648-1057): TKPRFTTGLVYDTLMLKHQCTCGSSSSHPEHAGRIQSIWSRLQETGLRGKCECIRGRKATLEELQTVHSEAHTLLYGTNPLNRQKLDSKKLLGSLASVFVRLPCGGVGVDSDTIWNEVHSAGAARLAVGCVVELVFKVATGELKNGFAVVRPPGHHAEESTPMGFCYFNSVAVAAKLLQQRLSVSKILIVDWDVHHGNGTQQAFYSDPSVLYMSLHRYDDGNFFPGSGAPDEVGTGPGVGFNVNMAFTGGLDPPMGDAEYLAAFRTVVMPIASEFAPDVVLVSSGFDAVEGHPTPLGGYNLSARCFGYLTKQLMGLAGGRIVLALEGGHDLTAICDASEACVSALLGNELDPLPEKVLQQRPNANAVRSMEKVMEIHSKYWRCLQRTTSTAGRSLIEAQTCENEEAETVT
Source text: To assess the biochemical and cellular potency of 4b and its conversion products/metabolites, we utilized the two-step fluorogenic assay which measures the HDAC-mediated catalytic conversion of synthetic acetylated lysine substrates. In brief, on deacetylation of the substrates by HDAC activity, a protease site is unmasked which allows subsequent trypsin-mediated cleavage and release of the highly flourescent AMC molecules in a subsequent step of the assay. The substrates used were Lys_Ac_AMC (Bachem I-1875) for HDAC3 and (Ac)Arg-Gly-Lys(Ac) (Bachem I-1925) for HDAC1 and HDAC2. […] However, the relatively labile and sterically more demanding trifluoracetyl group is readily hydrolyzed by the catalytically less avid Class IIa enzymes, allowing measurement of Class IIa activity using the 2-step fluorogenic assay. […]
For evaluation of the class selectivity of the compounds, we assessed inhibition against purified recombinant human full length HDAC1 (cat# 50051), HDAC2 (cat# 50052), HDAC3-NcoR2 (cat# 50003) and HDAC8 (cat# 50008): as representative of Class I activity; catalytic domain HDAC4(αα 648–1057), HDAC5 (αα 657–1123; cat # 50005), HDAC7 (αα 518-end; cat # 50007) and HDAC9 (αα 604–1066; cat # 50009) activity: representing all Class IIa activity; and full length HDAC6 (cat#50006): representing Class IIb activity. […]

[1] = Stability in serum albumin; format: in vitro ADME
Description: Incubations of test compound (5 µM initial concentration, n = 2) were carried out with pooled mouse plasma or BSA (45 mg/mL in 0.1 M phosphate buffered saline). The incubations were performed at 37°C. Samples (50 µL) were obtained from the incubation at 0, 10, 30, 120, 240, 360 and 1440 min, and added to 150 µL of acetonitrile containing carbamazepine as analytical internal standard to terminate the reaction. Samples were centrifuged and the supernatant fractions analysed by LC-MS/MS.

B1 (h) = target: T2, B1 (h) (Homo sapiens, UniProt P46663); assay: Cerep binding, agonist radioligand; details: read-out: % inhibition of control specific binding
T2 construct: purchased Cerep (Diversity Profile)
T2 sequence (P46663 whole entry): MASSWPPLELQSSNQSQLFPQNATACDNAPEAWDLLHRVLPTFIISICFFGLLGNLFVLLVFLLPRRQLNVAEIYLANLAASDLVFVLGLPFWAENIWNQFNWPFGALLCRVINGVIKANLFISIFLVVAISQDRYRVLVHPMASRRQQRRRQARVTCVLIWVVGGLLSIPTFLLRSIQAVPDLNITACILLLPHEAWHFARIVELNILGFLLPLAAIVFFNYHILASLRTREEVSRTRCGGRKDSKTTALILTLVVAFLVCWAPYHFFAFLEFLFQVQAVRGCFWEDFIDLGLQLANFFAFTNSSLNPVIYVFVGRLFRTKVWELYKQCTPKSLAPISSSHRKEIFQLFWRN
Source text: (§1) In addition to the HDAC profiling performed, we also queried 4b for any apparent potential off-target effects, which could complicate any finding of efficacy or adverse events in vivo due to ‘polypharmacy’. This was accomplished by screening against a ‘diversity panel’ of 72 binding and 29 enzyme assays, comprised of roughly equal numbers of selective central and peripheral therapeutically relevant targets (Cerep Diversity Profile). This panel included representative targets from diverse enzyme families, G protein coupled receptors, steroid nuclear receptors, voltage- and ligand-gated ion channels. While not totally inclusive, it is a useful tool for discovery compounds to assess their viability as proof of concept molecules to specifically query a particular target. 4b was initially screened at 10 µM in duplicate. The full set of results is provided as Table S1. […] This clean in vitro profile was considered acceptable to proceed to ADME and pharmacokinetic studies.

BZD (central) = assay: Cerep binding, agonist radioligand; details: 10 μM
Source text: as §1

CRF1 (h) = target: T3, CRF1 (h) (Homo sapiens, UniProt P34998); assay: Cerep binding, agonist radioligand; details: read-out: % inhibition of control specific binding
T3 construct: purchased Cerep (Diversity Profile)
T3 sequence (P34998 24-415): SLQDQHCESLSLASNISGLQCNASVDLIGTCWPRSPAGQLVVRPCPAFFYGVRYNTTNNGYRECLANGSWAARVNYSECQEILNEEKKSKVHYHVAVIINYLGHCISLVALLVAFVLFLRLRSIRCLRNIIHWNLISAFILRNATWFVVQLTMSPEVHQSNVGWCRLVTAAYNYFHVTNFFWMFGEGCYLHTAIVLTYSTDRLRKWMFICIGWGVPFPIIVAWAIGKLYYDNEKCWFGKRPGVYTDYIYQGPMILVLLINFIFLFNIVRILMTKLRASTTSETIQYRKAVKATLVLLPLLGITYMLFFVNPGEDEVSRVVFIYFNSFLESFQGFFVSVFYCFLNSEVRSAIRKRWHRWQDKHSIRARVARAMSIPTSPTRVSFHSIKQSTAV
Source text: as §1

ETA (h) = target: T4, ETA (h) (Homo sapiens, UniProt P25101); assay: Cerep binding, agonist radioligand; details: read-out: % inhibition of control specific binding
T4 construct: purchased Cerep (Diversity Profile)
T4 sequence (P25101 21-427): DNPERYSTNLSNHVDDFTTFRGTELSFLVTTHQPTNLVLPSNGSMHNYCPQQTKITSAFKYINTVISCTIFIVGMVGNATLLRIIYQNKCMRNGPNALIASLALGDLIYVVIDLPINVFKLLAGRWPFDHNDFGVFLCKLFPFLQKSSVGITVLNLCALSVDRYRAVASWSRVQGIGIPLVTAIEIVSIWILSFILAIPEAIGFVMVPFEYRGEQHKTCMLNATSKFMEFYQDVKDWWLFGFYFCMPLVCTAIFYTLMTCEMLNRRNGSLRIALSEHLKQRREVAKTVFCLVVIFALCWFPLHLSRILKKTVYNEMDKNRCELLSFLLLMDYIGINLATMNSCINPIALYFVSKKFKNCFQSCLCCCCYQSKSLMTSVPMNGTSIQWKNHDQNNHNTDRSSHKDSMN
Source text: as §1

P2X = assay: Cerep binding, agonist radioligand; details: 10 μM
Source text: as §1

AR (h) = assay: Cerep binding, agonist radioligand; design: species or system human; details: 10 μM
Source text: as §1

Compound	activity against HDAC4 (catalytic domain HDAC4)	stability in serum albumin incubations [1]	inhibition at 10 µM (B1 (h)) [%]	% inhibition of control specific binding (BZD (central)) [%]	inhibition at 10 µM (CRF1 (h)) [%]	inhibition at 10 µM (ETA (h)) [%]	% inhibition of control specific binding (P2X) [%]	% inhibition of control specific binding (AR (h)) [%]
Nc1ccccc1NC(=O)CCCCCC(=O)Nc1ccccc1 [Compound 4b]	No activity	stable	5	4	0			
O=C(CCCCCc1nc2ccccc2[nH]1)Nc1ccccc1 [Compound C1, 6-(1-H-benzo[d]imidazol-2-yl)-N-phenylhexanamide]						2	5	3
